From patent publication US4690926A, “Boxazomycin A and B, new antibiotics containing benzoxazole nucleus” (Bristol-Myers Company, priority 1986, dated 1987)
In brackets after ≈: the same amount, converted by molar mass. Structures can show the parent of a compound that is named as a salt.

Key:
[1] = assay type: physicochemical
[2] = system: Bacillus subtilis PCI 219; conditions: PCI219
S. aureus BX-1633 = assay type: cell-based; conditions: Staphylococcus aureus, BX1633; Nutrient agar (Eiken); lactamase producer
[3] = system: Peptostreptococcus anaerobius A21905
M. phlei D88 = conditions: Mycolicibacterium phlei
[4] = system: Pseudomonas aeruginosa D-113; conditions: D113
[5] = system: Klebsiella pneumoniae D-11; conditions: D11
[6] = system: Propionibacterium acnes A21933; conditions: Cutibacterium acnes
[7] = system: Mycobacterium smegmatis 607; conditions: Mycolicibacterium smegmatis
S. aureus A20239 = assay type: cell-based; conditions: Staphylococcus aureus, Nutrient agar (Eiken), kanamycin-resistant
C. perfringens A9635 [8] = assay: microbe, parasite or virus in culture; assay type: cell-based; conditions: Clostridium perfringens
B. fragilis A22534 = assay type: cell-based; conditions: Bacteroides fragilis, GA agar (Nissui), lactamase producer
[9] = system: Neisseria gonorrhoeae A15112
[10] = system: Bacteroides fragilis A22693
S. pneumoniae IID = conditions: Streptococcus pneumoniae
[11] = system: Clostridium difficile A21675; assay type: cell-based; conditions: Clostridioides difficile, GA agar (Nissui), clindamycin-resistant
[12] = system: Haemophilus influenzae A9729
M. smegmatis 607 D46 = assay type: cell-based, Mycobacterium smegmatis; conditions: Mycolicibacterium smegmatis, Nutrient agar (Eiken), kanamycin-resistant
[13] = system: Streptococcus pyogenes S-23; conditions: S23
S. aureus A22421 = assay type: cell-based; conditions: Staphylococcus aureus, Nutrient agar (Eiken), methicillin-resistant
[14] = system: Staphylococcus aureus Smith; assay: In vivo efficacy in infected mice; parameters: species or system Staphylococcus aureus; mice; conditions: for ED50: Staphylococcus aureus, im, 100×LD50 challenge in 5% hog gastric mucin, i.m. just before challenge, read-out: PD50
E. coli NIHJ = assay: Effect of pH on antimicrobial activity (MIC, Table 8); assay type: cell-based; conditions: Escherichia coli
B. fragilis A20926 = assay: as above; assay type: cell-based; conditions: Bacteroides fragilis
K. pneumoniae D11 = assay: as above; assay type: cell-based; conditions: Klebsiella pneumoniae
Acidity = assay type: physicochemical
B. subtilis PCI 219 = assay: Effect of pH on antimicrobial activity (MIC, Table 8); assay type: cell-based; conditions: Bacillus subtilis
C. perfringens A9635 [15] = assay: microbe, parasite or virus in culture; assay type: cell-based; conditions: Clostridium perfringens; remark: listed apart in the source
P. acnes A21933 = assay: Effect of pH on antimicrobial activity (MIC, Table 8); assay type: cell-based, Propionibacterium acnes; conditions: Cutibacterium acnes
S. necrophorus A15202 = assay: as above; assay type: cell-based; conditions: Fusobacterium necrophorum
Toxicity, i.m. = conditions: up to a dose of 400 mg/kg (i.m.)
[16] = system: Clostridium perfringens A9635; assay: animal or person; assay type: in vivo, Clostridium perfringens; mice

In the case of Cc1cc(O)c(C(N)=O)c2nc(-c3nc(CO)ncc3O)oc12 [Boxazomycin A di-sodium salt], the solubility in water [1] is reported as “soluble in water”.

With NC[C@H]1O[C@H](O[C@H]2[C@H](O)[C@@H](O[C@H]3O[C@H](CO)[C@@H](O)[C@H](N)[C@H]3O)[C@H](N)C[C@@H]2N)[C@H](O)[C@@H](O)[C@@H]1O [Kanamycin, kanamycin, reference compound] the MIC [2] was 0.2 µg/mL (≈ 0.413 µM), the MIC (S. aureus BX-1633) was 0.8 µg/mL (≈ 1.65 µM) and the MIC [3] was > 50 µg/mL. For the same compound, the MIC (M. phlei D88) was 1.6 µg/mL (≈ 3.3 µM), the MIC [4] was 25 µg/mL (≈ 51.6 µM) and the MIC [5] was 0.4 µg/mL (≈ 0.826 µM). For the same compound, the MIC [6] was > 50 µg/mL, the MIC [7] was 0.8 µg/mL (≈ 1.65 µM) and the MIC (S. aureus A20239) was > 100 µg/mL. For the same compound, the MIC (C. perfringens A9635 [8]) was > 50 µg/mL, the MIC (B. fragilis A22534) was 50 µg/mL (≈ 103 µM) and the MIC [9] was 0.4 µg/mL (≈ 0.826 µM). The MIC [10] was 50 µg/mL (≈ 103 µM), the MIC (S. pneumoniae IID) was 25 µg/mL (≈ 51.6 µM) and the MIC [11] was > 50 µg/mL. For the same compound, the MIC [12] was 0.4 µg/mL (≈ 0.826 µM), the MIC (M. smegmatis 607 D46) was > 100 µg/mL and the MIC [13] was 25 µg/mL (≈ 51.6 µM). It also gave an MIC (S. aureus A22421) of 0.8 µg/mL (≈ 1.65 µM) and an ED50 [14] of 1.4 mg/kg.

With Cc1ncc(O)c(-c2nc3c(C(N)=O)c(O)cc(C)c3o2)n1 [Boxazomycin B] the MIC [2] was 1.6 µg/mL (≈ 5.33 µM), the MIC (S. aureus BX-1633) was 0.8 µg/mL (≈ 2.66 µM) and the MIC [3] was 6.3 µg/mL (≈ 21 µM). The MIC (M. phlei D88) was 1.6 µg/mL (≈ 5.33 µM), the MIC (E. coli NIHJ; pH 6) was > 100 µg/mL and the MIC (E. coli NIHJ; pH 7) was > 100 µg/mL. For the same compound, the MIC (B. fragilis A20926; A20926, pH 6) was 0.1 µg/mL (≈ 0.333 µM), the MIC (B. fragilis A20926; A20926, pH 7) was 3.1 µg/mL (≈ 10.3 µM) and the MIC (K. pneumoniae D11; D11, pH 6) was > 100 µg/mL. For the same compound, the MIC (K. pneumoniae D11; D11, pH 7) was > 100 µg/mL, the “solubility in alkaline water and dimethylformamide” value [1] was “readily soluble” and the “solubility in ethyl acetate, chloroform, benzene and n-hexane” value [1] was “practically insoluble”. The “solubility in water, methanol, ethanol and acetone” value [1] was “slightly soluble”, the MIC [4] was > 100 µg/mL and the MIC [5] was > 100 µg/mL. It also gave an MIC [6] of 6.3 µg/mL (≈ 21 µM), an MIC [7] of 3.1 µg/mL (≈ 10.3 µM) and an MIC (S. aureus A20239) of 0.8 µg/mL (≈ 2.66 µM). For the same compound, the MIC (C. perfringens A9635 [8]) was 12.5 µg/mL (≈ 41.6 µM), the acidity (Acidity) was “weakly acidic” and the MIC (B. fragilis A22534) was 12.5 µg/mL (≈ 41.6 µM). For the same compound, the MIC [9] was > 100 µg/mL, the MIC (B. subtilis PCI 219; PCI219, pH 6) was 0.2 µg/mL (≈ 0.666 µM) and the MIC (B. subtilis PCI 219; PCI219, pH 7) was 1.6 µg/mL (≈ 5.33 µM). It also gave an MIC [10] of 12.5 µg/mL (≈ 41.6 µM), an MIC (S. pneumoniae IID) of 25 µg/mL (≈ 83.3 µM) and an MIC [11] of 6.3 µg/mL (≈ 21 µM). For the same compound, the MIC [12] was > 100 µg/mL, the MIC (M. smegmatis 607 D46) was 3.1 µg/mL (≈ 10.3 µM) and the MIC (C. perfringens A9635 [15]; A9635, pH 6) was 0.4 µg/mL (≈ 1.33 µM). It also gave an MIC (C. perfringens A9635 [15]; A9635, pH 7) of 6.3 µg/mL (≈ 21 µM), an MIC [13] of 12.5 µg/mL (≈ 41.6 µM) and an MIC (P. acnes A21933; A21933, pH 6) of 0.2 µg/mL (≈ 0.666 µM). The MIC (P. acnes A21933; A21933, pH 7) was 6.3 µg/mL (≈ 21 µM), the MIC (S. necrophorus A15202; A15202, pH 6) was 0.4 µg/mL (≈ 1.33 µM) and the MIC (S. necrophorus A15202; A15202, pH 7) was 6.3 µg/mL (≈ 21 µM). The MIC (S. aureus A22421) was 0.8 µg/mL (≈ 2.66 µM).

For Cc1cc(O)c(C(N)=O)c2nc(-c3nc(CO)ncc3O)oc12 [Boxazomycin A], the MIC [2] was 3.1 µg/mL (≈ 9.8 µM), the MIC (S. aureus BX-1633) was 0.8 µg/mL (≈ 2.53 µM) and the MIC [3] was 3.1 µg/mL (≈ 9.8 µM). The MIC (M. phlei D88) was 0.8 µg/mL (≈ 2.53 µM), the MIC (E. coli NIHJ; pH 6) was > 100 µg/mL and the MIC (E. coli NIHJ; pH 7) was > 100 µg/mL. For the same compound, the MIC (B. fragilis A20926; A20926, pH 6) was 0.05 µg/mL (≈ 0.158 µM), the MIC (B. fragilis A20926; A20926, pH 7) was 3.1 µg/mL (≈ 9.8 µM) and the MIC (K. pneumoniae D11; D11, pH 6) was > 100 µg/mL. For the same compound, the MIC (K. pneumoniae D11; D11, pH 7) was > 100 µg/mL, the “solubility in alkaline water and dimethylformamide” value [1] was “readily soluble” and the “solubility in ethyl acetate, chloroform, benzene and n-hexane” value [1] was “practically insoluble”. For the same compound, the “solubility in water, methanol, ethanol and acetone” value [1] was “slightly soluble”, the MIC [4] was > 100 µg/mL and the MIC [5] was > 100 µg/mL. It also gave an MIC [6] of 3.1 µg/mL (≈ 9.8 µM), an MIC [7] of 1.6 µg/mL (≈ 5.06 µM) and an MIC (S. aureus A20239) of 0.4 µg/mL (≈ 1.26 µM). For the same compound, the MIC (C. perfringens A9635 [8]) was 3.1 µg/mL (≈ 9.8 µM), the acidity (Acidity) was “weakly acidic” and the MIC (B. fragilis A22534) was 3.1 µg/mL (≈ 9.8 µM). The MIC [9] was > 100 µg/mL, the MIC (B. subtilis PCI 219; PCI219, pH 6) was 0.8 µg/mL (≈ 2.53 µM) and the MIC (B. subtilis PCI 219; PCI219, pH 7) was 6.3 µg/mL (≈ 19.9 µM). The MIC [10] was 6.3 µg/mL (≈ 19.9 µM), the MIC (S. pneumoniae IID) was 3.1 µg/mL (≈ 9.8 µM) and the MIC [11] was 3.1 µg/mL (≈ 9.8 µM). For the same compound, the MIC [12] was > 100 µg/mL, the MIC (M. smegmatis 607 D46) was 1.6 µg/mL (≈ 5.06 µM) and the MIC (C. perfringens A9635 [15]; A9635, pH 6) was 0.2 µg/mL (≈ 0.632 µM). The MIC (C. perfringens A9635 [15]; A9635, pH 7) was 3.1 µg/mL (≈ 9.8 µM), the MIC [13] was 3.1 µg/mL (≈ 9.8 µM) and the MIC (P. acnes A21933; A21933, pH 6) was 0.4 µg/mL (≈ 1.26 µM). It also gave an MIC (P. acnes A21933; A21933, pH 7) of 6.3 µg/mL (≈ 19.9 µM), an MIC (S. necrophorus A15202; A15202, pH 6) of 0.4 µg/mL (≈ 1.26 µM) and an MIC (S. necrophorus A15202; A15202, pH 7) of 3.1 µg/mL (≈ 9.8 µM). For the same compound, the MIC (S. aureus A22421) was 0.8 µg/mL (≈ 2.53 µM), the ED50 [14] was 400 mg/kg and the “in vivo efficacy relative to in vitro activity” value ([14]; i.m.) was “lower than that expected from its in vitro activity”. For the same compound, the protective effect ([14]; i.m.) was “protective effect in mice against both infections”, the toxic symptoms (Toxicity, i.m.) was “did not show any toxic symptoms up to a dose of 400 mg/kg (i.m.)” and the ED50 ([16]; Clostridium perfringens, A9635, in Mus musculus, im, read-out: PD50) was 220 mg/kg. For the same compound, the “in vivo efficacy relative to in vitro activity” value ([16]; mice, i.m.) was “lower than that expected from its in vitro activity” and the protective effect ([16]; mice, i.m.) was “protective effect in mice against both infections”.
